In patent US6875761B2 (Eisai Co., Ltd., priority 1997, dated 2005):
Structures can show the parent of a compound that is named as a salt.

| Compound | melting point |
| --- | --- |
| CCN1CCN(c2nc(-c3ccc(S(=O)(=O)CCCOC)cc3)cc3ccccc23)CC1 (as salt: hydrochloride) [Example 350, 1-(4-ethylpiperazin-1-yl)-3-{4-[(3-methoxypropyl)sulfonyl]phenyl}isoquinoline] | 177.5 to 180 °C |
| CCN1CCN(c2nc(-c3ccc(N4CCOCC4)cc3)cc3ccccc23)CC1 (as salt: hydrochloride) [Example 160, 3-[4-(4-morpholinyl)phenyl]-1-(4-ethylpiperazin-1-yl)isoquinoline dihydrochloride] | 242 to 245 °C (dec.) |
| CCN1CCN(c2nc(-c3cccc(OCCO)c3)cc3ccsc23)CC1 (as salt: hydrochloride) [Example 258, 7-(1-ethylpiperazin-4-yl)-5-[3-(2-hydroxyethoxy)phenyl]thieno[2,3-c]pyridine Dihydrochloride] | 132 to 135 °C |
| CCC(=O)NCc1ccc(-c2cc3ccccc3c(N3CCN(CC)CC3)n2)cc1 (as salt: hydrochloride) [Example 85, 3-(4-Ethylcarbonylaminomethylphenyl)-1-(4-ethylpiperazin-1-yl)isoquinoline Hydrochloride] | 171 to 174 °C |
| CCN1CCN(c2nc(C#CCc3ccccc3)cc3ccccc23)CC1 (as salt: oxalate) [Example 181, 1-(1-Ethylpiperazin-4-Yl)-3-(3-Phenyl-1-Propynyl)Isoquinoline Oxalate] | 180 to 183 °C |
| CCN1CCN(c2nc(-c3ccc(C(=O)N4CCCC4)cc3)cc3ccsc23)CC1 (as salt: hydrochloride) [Example 274, 7-(1-ethylpiperazin-4-yl)-5-[4-(pyrrolidinyl-1-carbonyl)phenyl]thieno[2,3-c]pyridine dihydrochloride] | 143 to 146 °C |
| CCC1CCN(c2nc(-c3ccc(OC)cc3)cc3ccccc23)CC1.Cl | 109 to 114 °C |
| CCCCC(=O)c1ccc(-c2cc3ccsc3c(N3CCN(CC)CC3)n2)cc1 (as salt: hydrochloride) [Example 271, 7-(1-ethylpiperazin-4-yl)-5-(4-pentanoylphenyl)phenyl)thieno[2,3-c]pyridine dihydrochloride] | 109 to 114 °C |
| CC(C)(O)COc1ccc(-c2cc3sccc3c(N3CCN(CCO)CC3)n2)cc1 (as salt: hydrochloride) [Example 296, 6-[4-(2-methyl-2-hydroxypropoxy)phenyl]-4-[4-(2-hydroxyethyl)piperazin-1-yl]thieno]3,2-c]pyridine hydrochloride] | 139 to 142 °C |
| CCN1CCN(c2nc(-c3ccc(C(O)CCO)cc3)cc3ccccc23)CC1 (stereo not drawn) (as salt: hydrochloride) [Example 24, 3-[4-(1,3-dihydroxypropyl)phenyl]-1-(4-ethylpiperazin-1-yl)isoquinoline hydrochloride] | 145 to 147 °C |
| COc1ccc(-c2cc3ccccc3c(N3CCOCC3)n2)cc1.Cl | 137 to 139 °C |
| CCCN1CCN(c2nc(-c3ccc(OC)cc3)cc3ccccc23)CC1 (as salt: hydrochloride) | 220 to 226 °C |
| CCN1CCN(c2nc(-c3ccc(OC)c(CCCCO)c3)cc3ccccc23)CC1 (as salt: hydrochloride) [Example 35, 3-[3-(4-hydroxybutyl)-4-methoxyphenyl]-1-(4-ethylpiperazin-1-yl)isoquinoline hydrochloride] | 128 to 132 °C |
| CCN1CCN(c2nc(-c3ccc(OC)cc3)cc3cccc(F)c23)CC1 (as salt: hydrochloride) [Example 233, 1-(1-ethylpiperazin-4-yl)-8-fluoro-3-(4-methoxyphenyl)isoquinoline dihydrochloride] | 222 to 227 °C |
| CCC(F)c1ccc(-c2cc3ccccc3c(N3CCN(CC)CC3)n2)cc1 (stereo not drawn) (as salt: hydrochloride) [Example 5, 1-(4-ethylpiperazin-1-yl)-3-[4-(1-fluoropropyl)phenyl]isoquinoline Hydrochloride] | 147 to 149 °C |
| CCN1CCN(c2nc(-c3ccc(S(=O)(=O)N(CC)CC)cc3)cc3ccccc23)CC1 (as salt: hydrochloride) [Example 359, 1-(4-ethylpiperazin-1-yl)-3-[4-(N,N-diethylsulfamoyl)phenyl]isoquinoline dihydrochloride] | 210 to 212 °C (dec.) |
| CCN1CCN(c2nc(-c3ccc(C(CC(C)O)OC)cc3)cc3ccccc23)CC1 (stereo not drawn) (as salt: hydrochloride) [Example 26, 3-[4-(3-hydroxy-1-methoxybutyl)phenyl]-1-(4-ethylpiperazin-1-yl)isoquinoline] | 171 to 174 °C |
| CCC(O)c1ccc(-c2cc3sccc3c(N3CCN(CC)CC3)n2)cc1 (stereo not drawn) (as salt: oxalate) [Example 282, 4-(4-ethylpiperazin-1-yl)-6-[4-(1-hydroxypropyl)phenyl]thieno-[3,2-c]pyridine oxalate] | 130 to 131 °C |
| CCN1CCN(c2nc(-c3ccc(CC(C)CO)cc3)cc3ccccc23)CC1 (stereo not drawn) (as salt: oxalate) [Example 386, 1-(4-Ethylpiperazin-1-yl)-3-[4-(3-Hydroxy-2-Methylpropyl)Phenyl]Isoquinoline Oxalate] | 195 to 196 °C |
| CCN1CCN(c2nc(-c3ccc(S(=O)(=O)N4CCS(=O)(=O)CC4)cc3)cc3ccccc23)CC1 (as salt: hydrochloride) [Example 77, 3-[(1,1-Dioxythiomorpholinyl)Sulfonylphenyl]-1-(4-Ethylpiperazin-1-Yl)Isoquinoline Hydrochloride] | 198 to 200 °C |
| CCN1CCN(c2nc(-c3ccc(O[C@@H](C)CO)cc3)cc3ccccc23)CC1 (as salt: hydrochloride) [Example 404, 1-(4-ethylpiperazin-1-yl)-3-[4-(2-hydroxy-1-methylethoxy)phenyl]isoquinoline Dihydrochloride] | 128 to 129 °C |
| CCN1CCN(c2nc(-c3ccc(OCCF)cc3)cc3ccccc23)CC1 (as salt: hydrochloride) [Example 45, 1-(4-Ethylpiperazin-1-Yl)-3-[4-(2-Fluoroethoxy)Phenyl]Isoquinoline Dihydrochloride] | 223 to 224 °C (dec.) |
| CCN1CCN(c2nc(-c3ccc(CCCO)c(OC)c3)cc3ccsc23)CC1 (as salt: hydrochloride) [Example 433, 7-(4-ethylpiperazin-1-yl)-5-[4-(3-hydroxypropyl)-3-methoxyphenyl]thieno[2,3-c]-pyridine hydrochloride] | 114 to 115 °C |

Further lines, results first:

| melting point | Compound |
| --- | --- |
| 141 to 143 °C | CCN1CCN(c2nc(-c3ccc4c(c3)OCCO4)cc3ccccc23)CC1 (as salt: hydrochloride) [Example 332, 1-(4-ethylpiperazin-1-yl)-3-(3,4-ethylenedioxyphenyl)isoquinoline dihydrochloride] |
| 170 to 172 °C | CCN1CCN(c2nc(-c3ccc(S(=O)(=O)NC)cc3)cc3ccccc23)CC1 (as salt: hydrochloride) [Example 361, 1-(4-ethylpiperazin-1-yl)-3-[4-(N-methylsulfamoyl)phenyl]isoquinoline dihydrochloride] |
| 158 to 159.5 °C | CCN1CCN(c2nc(-c3ccc(S(=O)(=O)NC4CC4)cc3)cc3ccccc23)CC1 (as salt: hydrochloride) [Example 363, 1-(4-ethylpiperazin-1-yl)-3-[4-(N-cyclopropylsulfamoyl)phenyl]isoquinoline dihydrochloride] |
| 170 °C | CCN1CCN(c2nc(-c3ccc(N4CCC(OC)CC4)nc3)cc3ccccc23)CC1 (as salt: hydrochloride) [Example 153, 1-(4-ethylpiperazin-1-yl)-3-[2-(4-methoxypiperidin-1-yl)pyridin-5-yl]isoquinoline trihydrochloride] |
| 213 to 215 °C (dec.) | CCN1CCN(c2nc(-c3ccc(CCO)c(F)c3)cc3ccccc23)CC1 (as salt: hydrochloride) [Example 385, 1-(4-Ethylpiperazin-1-yl)-3-[3-Fluoro-4-(2-Hydroxyethyl)Phenyl]Isoquinoline Dihydrochloride] |
| 133 to 135 °C (dec.) | CCN1CCN(c2nc(-c3ccc(OCC(O)CO)cc3)cc3ccccc23)CC1 (stereo not drawn) (as salt: hydrochloride) [Example 337, 1-(4-ethylpiperazin-1-yl)-3-[4-(2,3-dihydroxypropoxy)phenyl]isoquinoline dihydrochloride] |
| 231 to 233 °C | CCN1CCN(c2nc(C#CCN3CCOCC3)cc3ccccc23)CC1 (as salt: oxalate) [Example 180, 3-[3-(4-Morpholinyl)-1-Propynyl]-1-(4-Ethylpiperazin-1-Yl)Isoquinoline Oxalate] |
| 143 to 144 °C | CCN1CCN(c2nc(-c3ccc(OC4CCCCC4O)cc3)cc3ccccc23)CC1 (stereo not drawn) (as salt: hydrochloride) [Example 426, 1-(4-ethylpiperazin-1-yl)-3-[4-(2-hydroxycyclohexyloxy)phenyl]isoquinoline Hydrochloride] |
| 133 to 136 °C | CCN1CCN(c2nc(C3CCCc4c(OC)cccc43)cc3ccccc23)CC1 (stereo not drawn) (as salt: oxalate) |
| 138 to 140 °C | CCN1CCN(c2nc(-c3ccc(OCCO)c(Cl)c3)cc3ccccc23)CC1 (as salt: hydrochloride) [Example 39, 3-[3-chloro-4-(2-hydroxyethoxy)phenyl]-1-(4-ethylpiperazin-1-yl)isoquinoline hydrochloride] |
| 178 to 181 °C (dec.) | CCN1CCN(c2nc(Sc3ccccn3)cc3ccccc23)CC1 (as salt: oxalate) [Example 378, 1-(4-Ethylpiperazin-1-yl)-3-(2-Pyridylthio)Isoquinoline Oxalate] |
| 130 to 134 °C | CCN1CCN(c2nc(/C=C/c3cc(N4CCOCC4)ncn3)cc3ccccc23)CC1 (as salt: oxalate) [Example 215, 3{(E)-2-[4-(4-morpholinyl)pyrimidin-6-yl]ethenyl}-1-(4-ethylpiperazin-1-yl)isoquinoline oxalate] |
| 215 to 218 °C (dec.) | CCN1CCN(c2nc(-c3ccc(SC)cc3)cc3ccccc23)CC1 (as salt: hydrochloride) [Example 341, 1-(4-ethylpiperazin-1-yl)-3-(4-methylthiophenyl)isoquinoline dihdyrochloride] |
